{
  "source": "patent US20230241178A1",
  "about": "“LONG ACTING GLP-1/GIP DUAL AGONISTS” (SUN PHARMACEUTICAL INDUSTRIES LIMITED, priority 2020, published 2023)",
  "key": {"[1]": {"system": "type 2 diabetic mouse (db/db) model", "experiment": "Reduction in blood glucose and effect on body weight and food intake, single dose, db/db mice (Tables 4, 5)", "format": "in vivo", "conditions": "n = 6 study; for Delta Blood Glucose (mM), Mean: @ 3 nM s.c.", "method": "The effect of Compounds of present invention on blood glucose was studied on mice. This study was performed in a type 2 diabetic mouse (db/db) model. […] Baseline blood glucose was measured from all the animals. All animals were administered with its respective test item subcutaneously. […] Delta blood glucose (mM) was calculated. Similarly body weight changes and cumulative food consumption was measured at 96 hr post treatment."}, "[2]": {"system": "type 2 diabetic mouse (db/db) model", "experiment": "Effect on blood glucose, food intake and body weight, single s.c. dose 10 nM/kg, db/db mice (Tables 8, 9)", "format": "in vivo", "conditions": "10 nM/kg/s.c/single dose", "method": "This study was performed in a type 2 diabetic mouse (db/db) model. […] Baseline blood glucose was measured from all the animals. All the animals were administered with test items subcutaneously. Blood glucose was measured at 4 hr, 12 hr, 24 hr, 48 hr, 72 hr and 96 hr post treatment. Delta blood glucose (mM) was calculated. Body weight changes and cumulative food consumption was measured at 96 hr post treatment. Similarly the effect of Compounds 11-15 on blood glucose, food intake and body weight was studied in a separate study except for Compound 13. The results are shown in Table 8 (effect on blood glucose) and Table 9 (effect on body weight and food consumption)."}},
  "note": "Marks after values point to notes of the source that are not given here. Numbered stars: 1 amine (or outer) side, 2 acyl side, 3 side chain; on linkers, the order of the positions; unused ones are H or OH. Square brackets hold non-standard residues; d marks the D form. Primed or numbered codes have the meaning given here. Ends that are not written are not given here. dSer(OMe) = COC[C@@H](N[*:1])C(=O)[*:2]; Moiety B″ = not defined here; Aib = CC(C)(N)C(=O)O",
  "data": [
    {"substance": "Compound 3: Seq ID: 06 polypeptide, Lys acylated with Moiety B (Y[dSer(OMe)]EGTFTSDYSI[Aib]LDKIAQK(Moiety B″)AFVQWLIAGGPSSGAPPPS-NH2; reading uncertain)", "values": [
      {"measurement": "Cumulative Food Intake (g) 0-96 hr, Mean", "setting": "[1]; 3 nM/kg s.c., 0-96 hr", "value": 21.9, "unit": "g"},
      {"measurement": "Body Weight Change (%) 96 hr., Mean", "setting": "[1]; 3 nM/kg s.c., 96 hr", "value": "−2.5*** %"},
      {"measurement": "Delta Blood Glucose (mM), Mean", "setting": "[1]; 4 hr post treatment", "value": -9.2, "unit": "mM"},
      {"measurement": "Delta Blood Glucose (mM), Mean", "setting": "[1]; 12 hr post treatment", "value": -2.9, "unit": "mM"},
      {"measurement": "Delta Blood Glucose (mM), Mean", "setting": "[1]; 24 hr post treatment", "value": 1.6, "unit": "mM"},
      {"measurement": "Delta Blood Glucose (mM), Mean", "setting": "[1]; 48 hr post treatment", "value": 0.7, "unit": "mM"},
      {"measurement": "Delta Blood Glucose (mM), Mean", "setting": "[1]; 72 hr post treatment", "value": 2, "unit": "mM"},
      {"measurement": "Delta Blood Glucose (mM), Mean", "setting": "[1]; 96 hr post treatment", "value": 2.1, "unit": "mM"}
    ]},
    {"substance": "Compound 11: Seq ID: 11 polypeptide, Lys acylated with Moiety B (YXEGTFTSDYSIXLDKIAQKAFVQWLIAGGPSSGAPPPSR; (2)..(2) Xaa = Aib (2-Aminoisobutyric acid); (13)..(13) Xaa = Aib (2-Aminoisobutyric acid); (20)..(20) Side chain amino (Epsilon amino) group of Lys is substituted)", "values": [
      {"measurement": "Delta Blood Glucose (mM), Mean", "setting": "[2]; 0 hr (baseline)", "value": 0.0, "unit": "mM"},
      {"measurement": "Body Wt. Change (%) 96 hr. vs. Baseline, Mean", "setting": "[2]", "value": "−4.5*** %"},
      {"measurement": "Cumulative food Intake (g) 96 hr. vs. Baseline, Mean", "setting": "[2]", "value": "14.1*** g"},
      {"measurement": "blood glucose reduction post treatment (in words)", "setting": "[2]", "value": "statistically significant blood glucose reduction"},
      {"measurement": "Delta Blood Glucose (mM), Mean", "setting": "[2]; 4 hr post treatment", "value": "−10.5*** mM"},
      {"measurement": "Delta Blood Glucose (mM), Mean", "setting": "[2]; 12 hr post treatment", "value": "−11.2*** mM"},
      {"measurement": "Delta Blood Glucose (mM), Mean", "setting": "[2]; 24 hr post treatment", "value": "−14.6*** mM"},
      {"measurement": "Delta Blood Glucose (mM), Mean", "setting": "[2]; 48 hr post treatment", "value": "−6.4*** mM"},
      {"measurement": "Delta Blood Glucose (mM), Mean", "setting": "[2]; 72 hr post treatment", "value": "−2.9*** mM"},
      {"measurement": "Delta Blood Glucose (mM), Mean", "setting": "[2]; 96 hr post treatment", "value": 1.1, "unit": "mM"}
    ]},
    {"substance": "Compound 16: Seq ID: 11 polypeptide, Lys acylated with Moiety D (YXEGTFTSDYSIXLDKIAQKAFVQWLIAGGPSSGAPPPSR; (2)..(2) Xaa = Aib (2-Aminoisobutyric acid); (13)..(13) Xaa = Aib (2-Aminoisobutyric acid); (20)..(20) Side chain amino (Epsilon amino) group of Lys is substituted)", "values": [
      {"measurement": "Delta Blood Glucose (mM), Mean", "setting": "[2]; 0 hr (baseline)", "value": 0.0, "unit": "mM"},
      {"measurement": "Delta Blood Glucose (mM), Mean", "setting": "[2]; 4 hr post treatment", "value": "−14.4*** mM"},
      {"measurement": "Delta Blood Glucose (mM), Mean", "setting": "[2]; 12 hr post treatment", "value": "−12.1*** mM"},
      {"measurement": "Delta Blood Glucose (mM), Mean", "setting": "[2]; 24 hr post treatment", "value": "−10.8*** mM"},
      {"measurement": "Delta Blood Glucose (mM), Mean", "setting": "[2]; 48 hr post treatment", "value": "−4.9** mM"},
      {"measurement": "Delta Blood Glucose (mM), Mean", "setting": "[2]; 72 hr post treatment", "value": 0.8, "unit": "mM"},
      {"measurement": "Delta Blood Glucose (mM), Mean", "setting": "[2]; 96 hr post treatment", "value": "0.7* mM"}
    ]},
    {"substance": "Compound 12: Seq ID: 11 polypeptide, Lys acylated with Moiety C (YXEGTFTSDYSIXLDKIAQKAFVQWLIAGGPSSGAPPPSR; (2)..(2) Xaa = Aib (2-Aminoisobutyric acid); (13)..(13) Xaa = Aib (2-Aminoisobutyric acid); (20)..(20) Side chain amino (Epsilon amino) group of Lys is substituted)", "values": [
      {"measurement": "Delta Blood Glucose (mM), Mean", "setting": "[2]; 0 hr (baseline)", "value": 0.0, "unit": "mM"},
      {"measurement": "Body Wt. Change (%) 96 hr. vs. Baseline, Mean", "setting": "[2]", "value": "−3.1** %"},
      {"measurement": "Cumulative food Intake (g) 96 hr. vs. Baseline, Mean", "setting": "[2]", "value": "15.2*** g"},
      {"measurement": "Delta Blood Glucose (mM), Mean", "setting": "[2]; 4 hr post treatment", "value": "−14.2*** mM"},
      {"measurement": "Delta Blood Glucose (mM), Mean", "setting": "[2]; 12 hr post treatment", "value": "−13.0*** mM"},
      {"measurement": "Delta Blood Glucose (mM), Mean", "setting": "[2]; 24 hr post treatment", "value": "−8.0*** mM"},
      {"measurement": "Delta Blood Glucose (mM), Mean", "setting": "[2]; 48 hr post treatment", "value": "−5.5* mM"},
      {"measurement": "Delta Blood Glucose (mM), Mean", "setting": "[2]; 72 hr post treatment", "value": -2.9, "unit": "mM"},
      {"measurement": "Delta Blood Glucose (mM), Mean", "setting": "[2]; 96 hr post treatment", "value": 1.7, "unit": "mM"}
    ]}
  ]
}
